According to US10308644B2, “Heterocyclic compounds as immunomodulators” (Incyte Corporation, priority 2016, dated 2019):

Biological target: PD-1/PD-L1 (Homo sapiens (Human), UniProt Q9NZQ7)
Assay: PD-1/PD-L1 Homogeneous Time-Resolved Fluorescence (HTRF) Binding Assay
Conditions: recombinant human PD-1 (3 nM) and PD-L1 (10 nM), 25° C., PBS pH 7.4
In short: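 Fc-tagged human PD-1 (25-167, 3 nM) and His-tagged PD-L1 (19-238, 10 nM) preincubated with inhibitor 40 min in PBS pH 7.4, 0.05% Tween-20, 0.1% BSA, 1% DMSO, 25 °C. Binding detected by HTRF (Eu anti-IgG/APC anti-His, 665/620 nm) after 60 min; IC50 from percent control activity.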

Chain of PD-1/PD-L1 (Q9NZQ7 19-238): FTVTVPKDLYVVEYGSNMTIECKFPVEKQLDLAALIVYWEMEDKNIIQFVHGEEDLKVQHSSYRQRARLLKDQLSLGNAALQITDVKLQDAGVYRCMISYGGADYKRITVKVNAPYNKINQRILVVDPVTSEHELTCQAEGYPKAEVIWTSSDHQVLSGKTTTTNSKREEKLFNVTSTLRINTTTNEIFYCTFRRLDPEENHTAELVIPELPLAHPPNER

SMILES	IC50 [nM]
Cc1c(-c2nc3c(o2)CCNC3)cccc1-c1cccc(-c2nc3cc(CN4CC[C@H](C(=O)O)C4)cc(Cl)c3o2)c1C [Example 76, (S)-1-((7-chloro-2-(2,2′-dimethyl-3′-(4,5,6,7-tetrahydrooxazolo[4,5-c]pyridin-2-yl)-[1,1′-biphenyl]-3-yl)benzo[d]oxazol-5-yl)methyl)pyrrolidine-3-carboxylic acid]	≤ 10
Cc1c(-c2nc3cc(CN4CC[C@@H](O)C4)cc(C#N)c3o2)cccc1-c1cccc(-c2nc3c(s2)CN(C(C)C)CC3)c1C [Example 121, (R)-5-((3-hydroxypyrrolidin-1-yl)methyl)-2-(3′-(5-isopropyl-4,5,6,7-tetrahydrothiazolo[5,4-c]pyridin-2-yl)-2,2′-dimethyl-[1,1′-biphenyl]-3-yl)benzo[d]oxazole-7-carbonitrile]	≤ 10
Cc1c(-c2nc3cc(CN4CC5(C(=O)O)CC4C5)cc(C#N)c3o2)cccc1-c1cccc(-c2nc3c(s2)CN(C(=O)CN(C)C)C3)c1C [Example 235, 2-((7-cyano-2-(3′-(5-(2-(dimethylamino)acetyl)-5,6-dihydro-4H-pyrrolo[3,4-d]thiazol-2-yl)-2,2′-dimethylbiphenyl-3-yl)benzo[d]oxazol-5-yl)methyl)-2-azabicyclo[2.1.1]hexane-4-carboxylic acid]	≤ 10
Cc1c(Nc2nccc3cc(CNC[C@H](C)O)cnc23)cccc1-c1cccc(-c2nc3cc(CN4CC[C@@](C)(C(=O)O)C4)cc(C#N)c3o2)c1C [Example 191, (R)-1-((7-cyano-2-(3′-(3-(((S)-2-hydroxypropylamino)methyl)-1,7-naphthyridin-8-ylamino)-2,2′-dimethylbiphenyl-3-yl)benzo[d]oxazol-5-yl)methyl)-3-methylpyrrolidine-3-carboxylic acid]	≤ 10
Cc1c(-c2nc3cc(CN4CC[C@@H](C(=O)O)C4)cc(Cl)c3o2)cccc1-c1cccc(N2CCC(N[C@H]3C[C@@H](O)C3)CC2)c1Cl [Example 45, (R)-1-((7-chloro-2-(2′-chloro-3′-(4-((1s,3s)-3-hydroxycyclobutylamino)piperidin-1-yl)-2-methylbiphenyl-3-yl)benzo[d]oxazol-5-yl)methyl)pyrrolidine-3-carboxylic acid]	≤ 10
CCN(C1CCN(c2cccc(-c3cccc(-c4nc5cc(CN6CC[C@@H](C(=O)O)C6)cc(C#N)c5o4)c3C)c2Cl)CC1)[C@H]1C[C@@H](O)C1 [Example 49, (R)-1-((2-(2′-chloro-3′-(4-(ethyl((1s,3s)-3-hydroxycyclobutyl)amino)piperidin-1-yl)-2-methylbiphenyl-3-yl)-7-cyanobenzo[d]oxazol-5-yl)methyl)pyrrolidine-3-carboxylic acid]	≤ 10
Cc1c(-c2nc3cc(CN4CCCC[C@H]4C(=O)O)cc(Cl)c3o2)cccc1-c1cccc(NC(=O)c2ccc(CN3CC[C@H](O)C3)cn2)c1Cl [Example 2, (S)-1-((7-chloro-2-(2′-chloro-3′-(5-(((S)-3-hydroxypyrrolidin-1-yl)methyl)picolinamido)-2-methyl-[1,1′-biphenyl]-3-yl)benzo[d]oxazol-5-yl)methyl)piperidine-2-carboxylic acid]	≤ 10
CCN(C)CC(=O)N1Cc2nc(-c3cccc(-c4cccc(-c5nc6cc(CN7CCC(C(=O)O)CC7)cc(C#N)c6o5)c4C)c3C)oc2C1 [Example 244, 1-((7-cyano-2-(3′-(5-(N-ethyl-N-methylglycyl)-5,6-dihydro-4H-pyrrolo[3,4-d]oxazol-2-yl)-2,2′-dimethyl-[1,1′-biphenyl]-3-yl)benzo[d]oxazol-5-yl)methyl)piperidine-4-carboxylic acid]	≤ 10
Cc1c(-c2nc3cc(CN4CC(C(=O)O)C4)cc(C#N)c3o2)cccc1-c1cccc(-n2cc3c(n2)CN(C(C)C)CC3)c1Cl [Example 239, 1-((2-(2′-chloro-3′-(6-isopropyl-4,5,6,7-tetrahydro-2H-pyrazolo[3,4-c]pyridin-2-yl)-2-methylbiphenyl-3-yl)-7-cyanobenzo[d]oxazol-5-yl)methyl)azetidine-3-carboxylic acid]	≤ 10
Cc1c(-c2nc3cc(CN4CC[C@@H](C(=O)O)C4)cc(C#N)c3o2)cccc1-c1cccc(NC(=O)c2nc3c(n2C)CC(C)NC3)c1Cl (stereo partly drawn) [Example 159, (3R)-1-((2-(2′-chloro-3′-(1,6-dimethyl-4,5,6,7-tetrahydro-1H-imidazo[4,5-c]pyridine-2-carboxamido)-2-methylbiphenyl-3-yl)-7-cyanobenzo[d]oxazol-5-yl)methyl)pyrrolidine-3-carboxylic acid]	≤ 10
CCN1CCc2nc(-c3cccc(-c4cccc(-c5nc6cc(CN7CC[C@@H](C(=O)O)C7)cc(Cl)c6o5)c4C)c3C)sc2C1 [Example 60, (R)-1-((7-chloro-2-(3′-(5-ethyl-4,5,6,7-tetrahydrothiazolo[5,4-c]pyridin-2-yl)-2,2′-dimethyl-[1,1′-biphenyl]-3-yl)benzo[d]oxazol-5-yl)methyl)pyrrolidine-3-carboxylic acid]	≤ 10
Cc1c(-c2nc3cc(CN4CCC(C(=O)O)CC4)cc(C#N)c3o2)cccc1-c1cccc(NC(=O)c2nc3c(n2C)CC(C)NC3)c1Cl (stereo not shown) [Example 164, 1-((2-(2′-chloro-3′-(1,6-dimethyl-4,5,6,7-tetrahydro-1H-imidazo[4,5-c]pyridine-2-carboxamido)-2-methylbiphenyl-3-yl)-7-cyanobenzo[d]oxazol-5-yl)methyl)piperidine-4-carboxylic acid]	≤ 10
Cc1c(Nc2nccc3cc(CN4CC[C@H](O)C4)cnc23)cccc1-c1cccc(-c2nc3cc(CN4CCC(C(=O)O)CC4)cc(Cl)c3o2)c1C [Example 22, (S)-1-((7-chloro-2-(3′-(3-((3-hydroxypyrrolidin-1-yl)methyl)-1,7-naphthyridin-8-ylamino)-2,2′-dimethylbiphenyl-3-yl)benzo[d]oxazol-5-yl)methyl)piperidine-4-carboxylic acid]	≤ 10
Cc1c(-c2nc3cc(CN4CC[C@@](C)(C(=O)O)C4)cc(C#N)c3o2)cccc1-c1cccc(NC(=O)c2nc3c(n2C)CN(C)C3)c1Cl [Example 158, (R)-1-((2-(2′-chloro-3′-(1,5-dimethyl-1,4,5,6-tetrahydropyrrolo[3,4-d]imidazole-2-carboxamido)-2-methylbiphenyl-3-yl)-7-cyanobenzo[d]oxazol-5-yl)methyl)-3-methyl pyrrolidine-3-carboxylic acid]	≤ 10
Cc1c(-c2nc3cc(CN4CC[C@@H](C(=O)O)C4)cc(C#N)c3o2)cccc1-c1cccc(-c2nc3c(s2)CN(C(=O)CN2CC[C@@H](O)C2)C3)c1C [Example 111, (R)-1-((7-cyano-2-(3′-(5-(2-((R)-3-hydroxypyrrolidin-1-yl)acetyl)-5,6-dihydro-4H-pyrrolo[3,4-d]thiazol-2-yl)-2,2′-dimethylbiphenyl-3-yl)benzo[d]oxazol-5-yl)methyl)pyrrolidine-3-carboxylic acid]	≤ 10
Cc1c(Nc2nccn3c(CN4CC[C@H](O)C4)cnc23)cccc1-c1cccc(-c2nc3cc(CN4CC[C@H](C(=O)O)C4)cc(C#N)c3o2)c1C [Example 152, (S)-1-((7-cyano-2-(3′-(3-(((S)-3-hydroxypyrrolidin-1-yl)methyl)imidazo[1,2-a]pyrazin-8-ylamino)-2,2′-dimethylbiphenyl-3-yl)benzo[d]oxazol-5-yl)methyl)pyrrolidine-3-carboxylic acid]	≤ 10
Cc1c(-c2nc3cc(CN4CC[C@@H](C(=O)O)C4)cc(C#N)c3o2)cccc1-c1cccc(-c2nc3c(s2)C(C)(C)N(C)CC3)c1C [Example 79, (R)-1-((7-cyano-2-(2,2′-dimethyl-3′-(4,4,5-trimethyl-4,5,6,7-tetrahydrothiazolo[5,4-c]pyridin-2-yl)-[1,1′-biphenyl]-3-yl)benzo[d]oxazol-5-yl)methyl)pyrrolidine-3-carboxylic acid]	≤ 10
Cc1c(-c2nc3cc(CN4CCC(C(=O)O)CC4)cc(C#N)c3o2)cccc1-c1cccc(-c2nc3c(s2)CN(C(=O)CN(C)C)C3)c1C [Example 236, 1-((7-cyano-2-(3′-(5-(2-(dimethylamino)acetyl)-5,6-dihydro-4H-pyrrolo[3,4-d]thiazol-2-yl)-2,2′-dimethylbiphenyl-3-yl)benzo[d]oxazol-5-yl)methyl)piperidine-4-carboxylic acid]	≤ 10
Cc1c(-c2nc3cc(CN4CC[C@@H](C(=O)O)C4)cc(C#N)c3o2)cccc1-c1cccc(-c2nc3c(s2)CN(CC2CC2)CC3)c1C [Example 64, (R)-1-((7-cyano-2-(3′-(5-(cyclopropylmethyl)-4,5,6,7-tetrahydrothiazolo[5,4-c]pyridin-2-yl)-2,2′-dimethyl-[1,1′-biphenyl]-3-yl)benzo[d]oxazol-5-yl)methyl)pyrrolidine-3-carboxylic acid]	≤ 10
Cc1c(Nc2nccc3cc(CN4CC[C@@H](O)C4)cnc23)cccc1-c1cccc(-c2nc3cc(CN4CC[C@H](C(=O)O)C4)cc(C#N)c3o2)c1C [Example 28, (S)-1-((7-cyano-2-(3′-(3-(((R)-3-hydroxypyrrolidin-1-yl)methyl)-1,7-naphthyridin-8-ylamino)-2,2′-dimethylbiphenyl-3-yl)benzo[d]oxazol-5-yl)methyl)pyrrolidine-3-carboxylic acid]	≤ 10
Cc1c(Nc2nccc3cc(CN4CC[C@@H](O)C4)cnc23)cccc1-c1cccc(-c2nc3cc(CN4CCC(C(=O)O)CC4)cc(C#N)c3o2)c1C [Example 186, (R)-1-((7-cyano-2-(3′-(3-((3-hydroxypyrrolidin-1-yl)methyl)-1,7-naphthyridin-8-ylamino)-2.2′-dimethylbiphenyl-3-yl)benzo [d]oxazol-5-yl)methyl)piperidine-4-carboxylic acid]	≤ 10
Cc1c(Nc2nccc3cc(CN4CC[C@@](C)(C(=O)O)C4)cnc23)cccc1-c1cccc(-c2nc3cc(CN4CC[C@@H](O)C4)cc(C#N)c3o2)c1C [Example 216, (R)-1-((8-(3′-(7-cyano-5-(((R)-3-hydroxypyrrolidin-1-yl)methyl)benzo [d]oxazol-2-yl)-2,2′-dimethylbiphenyl-3-ylamino)-1,7-naphthyridin-3-yl)methyl)-3-methylpyrrolidine-3-carboxylic acid]	≤ 10
